Molecular target: T1, Abf62C (Mycothermus thermophilus, UniProt A0A059U759)
T1 construct: gene AXH62C; N-terminal His tag, pET15b LIC, E. coli BL21(DE3) Gold; monomer
Assay: X-ray crystal structure of complex, […] Å
Assay type: binding
Conditions: co-crystals, 2 mM preincubation, 20 mM xylotriose in reservoir, 22 °C; active site subsites +2NR, +1, +2R; no calcium

T1 sequence (A0A059U759 entry or part of it): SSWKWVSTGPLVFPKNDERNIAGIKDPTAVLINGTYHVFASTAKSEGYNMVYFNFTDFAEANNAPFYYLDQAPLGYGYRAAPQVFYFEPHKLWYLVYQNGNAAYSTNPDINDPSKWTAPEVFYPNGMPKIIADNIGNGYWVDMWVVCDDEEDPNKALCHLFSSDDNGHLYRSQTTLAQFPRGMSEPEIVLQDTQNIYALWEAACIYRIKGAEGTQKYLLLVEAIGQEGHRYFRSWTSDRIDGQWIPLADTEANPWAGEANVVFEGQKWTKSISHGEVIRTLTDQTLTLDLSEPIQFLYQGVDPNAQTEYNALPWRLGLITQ

SMILES: OC1OC[C@@H](O[C@@H]2OC[C@@H](O[C@@H]3OC[C@@H](O)[C@H](O)[C@H]3O)[C@H](O)[C@H]2O)[C@H](O)[C@H]1O (stereo partly shown) [xylotriose]
- X-ray crystal structure of complex, 1.48 Å: Abf62C-xylotriose complex have been deposited in the Research Co-laboratory for Structural Bioinformatics Protein Data Bank
